Test results from patent US8822517B2, “Arylosulfonamides for the treatment of CNS diseases” (Adamed SP. Z O.O., priority 2010, dated 2014).

How the values were obtained:
[1] = target: serotoninergic 5-HT2A receptor (Homo sapiens, UniProt P28223); experiment: Binding assay 5-HT2A (h), [3H]ketanserin, HEK-293 cells; design: expressed in transfected cells; host or cells: HEK-293 cells; conditions: read-out: 5-HT2A
Summary of the method: (§1)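 Compounds tested at a single 1×10^−6 M concentration against the listed radioligands; bound label counted by scintillation, with non-specific binding defined by excess unlabelled ligand and subtracted from total.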

sigma σ receptor = experiment: Binding assay σ (non-selective), [3H]DTG, rat cerebral cortex; conditions: percent inhibition of control specific binding; compounds tested at 1×10^−6 M
Summary of the method: as §1

[2] = target: serotoninergic 5-HT6 receptor (Homo sapiens, UniProt P50406); experiment: Binding assay 5-HT6 (h), [3H]LSD, CHO cells; design: expressed in transfected cells; host or cells: CHO cells; conditions: read-out: 5-HT6
Chain of serotoninergic 5-HT6 receptor (P50406 whole entry): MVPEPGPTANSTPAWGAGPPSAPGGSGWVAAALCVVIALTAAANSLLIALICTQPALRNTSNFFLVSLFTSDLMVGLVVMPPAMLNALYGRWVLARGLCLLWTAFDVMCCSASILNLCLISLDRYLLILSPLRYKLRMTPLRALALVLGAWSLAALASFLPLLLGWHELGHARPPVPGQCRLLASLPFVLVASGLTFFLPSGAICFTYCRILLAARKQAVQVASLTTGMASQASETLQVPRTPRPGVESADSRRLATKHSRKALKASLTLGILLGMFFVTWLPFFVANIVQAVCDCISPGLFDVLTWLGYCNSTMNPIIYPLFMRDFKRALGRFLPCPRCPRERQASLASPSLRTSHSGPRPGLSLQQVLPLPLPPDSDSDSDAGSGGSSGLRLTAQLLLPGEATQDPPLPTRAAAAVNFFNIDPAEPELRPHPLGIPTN
Summary of the method: as §1

[3] = target: T1, serotoninergic receptor 5-HT2C (Homo sapiens, UniProt P28335); experiment: Binding assay 5-HT2C (h), [3H]mesulergine, HEK-293 cells; conditions: read-out: 5-HT2C [%]
T1 construct: expressed in transfected cells; host or cells: HEK-293 cells
T1 sequence (P28335 33-458): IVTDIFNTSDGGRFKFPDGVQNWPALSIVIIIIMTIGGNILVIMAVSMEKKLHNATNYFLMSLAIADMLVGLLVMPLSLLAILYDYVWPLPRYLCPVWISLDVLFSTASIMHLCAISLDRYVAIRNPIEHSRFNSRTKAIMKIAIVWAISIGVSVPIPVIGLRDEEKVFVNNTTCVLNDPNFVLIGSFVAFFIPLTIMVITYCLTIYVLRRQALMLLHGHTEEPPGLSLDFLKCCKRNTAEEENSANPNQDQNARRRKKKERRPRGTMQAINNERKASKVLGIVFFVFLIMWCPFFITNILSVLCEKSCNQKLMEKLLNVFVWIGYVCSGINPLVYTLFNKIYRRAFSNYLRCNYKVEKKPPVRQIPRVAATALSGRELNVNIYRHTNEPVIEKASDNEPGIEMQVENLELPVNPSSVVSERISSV
Summary of the method: as §1

muscarinic M3 receptor = target: T2, muscarinic M3 receptor (Homo sapiens, UniProt P20309); experiment: Binding assay M3 (h), [3H]4-DAMP, CHO cells; conditions: read-out: M3 [%]
T2 construct: expressed in transfected cells; host or cells: CHO cells
T2 sequence (P20309 whole entry): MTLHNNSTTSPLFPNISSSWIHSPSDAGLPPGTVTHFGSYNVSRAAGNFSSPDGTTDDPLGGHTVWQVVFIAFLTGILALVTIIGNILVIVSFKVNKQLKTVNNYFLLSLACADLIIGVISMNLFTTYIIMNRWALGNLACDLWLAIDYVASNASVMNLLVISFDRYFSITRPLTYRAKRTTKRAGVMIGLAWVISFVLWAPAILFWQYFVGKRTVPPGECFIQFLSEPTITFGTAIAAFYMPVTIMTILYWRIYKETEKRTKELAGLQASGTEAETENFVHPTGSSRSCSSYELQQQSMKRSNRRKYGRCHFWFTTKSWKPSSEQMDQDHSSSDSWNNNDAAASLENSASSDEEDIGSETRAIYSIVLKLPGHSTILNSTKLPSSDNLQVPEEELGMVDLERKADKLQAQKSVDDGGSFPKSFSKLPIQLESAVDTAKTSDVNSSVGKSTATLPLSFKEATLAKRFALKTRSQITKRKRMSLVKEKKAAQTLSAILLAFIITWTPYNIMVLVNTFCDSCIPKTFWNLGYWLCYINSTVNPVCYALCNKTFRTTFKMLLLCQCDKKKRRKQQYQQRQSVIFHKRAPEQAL
Summary of the method: as §1

dopaminergic D2 receptor = dopaminergic D2 receptor (Homo sapiens, UniProt P14416); experiment: Binding assay D2S (h), [3H]methyl-spiperone, HEK-293 cells; design: expressed in transfected cells; host or cells: HEK-293 cells; conditions: read-out: D2 [%]
Chain of dopaminergic D2 receptor (P14416 1-414 isoform P14416-2): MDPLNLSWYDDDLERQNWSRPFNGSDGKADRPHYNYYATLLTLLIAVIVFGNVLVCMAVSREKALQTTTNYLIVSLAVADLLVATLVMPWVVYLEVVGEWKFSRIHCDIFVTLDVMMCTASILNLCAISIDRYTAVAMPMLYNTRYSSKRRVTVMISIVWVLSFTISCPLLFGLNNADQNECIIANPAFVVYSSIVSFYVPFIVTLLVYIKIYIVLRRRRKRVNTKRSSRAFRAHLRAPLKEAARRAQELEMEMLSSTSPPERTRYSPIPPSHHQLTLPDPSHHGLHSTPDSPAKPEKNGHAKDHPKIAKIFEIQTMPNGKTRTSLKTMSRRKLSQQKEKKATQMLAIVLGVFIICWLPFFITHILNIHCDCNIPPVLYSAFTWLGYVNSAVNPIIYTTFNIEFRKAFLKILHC
Summary of the method: as §1

dopaminergic D3 receptor = dopaminergic D3 receptor (Homo sapiens, UniProt P35462); experiment: Binding assay D3 (h), [3H]methyl-spiperone, CHO cells; design: expressed in transfected cells; host or cells: CHO cells; conditions: read-out: D3 [%]
Chain of dopaminergic D3 receptor (P35462 whole entry): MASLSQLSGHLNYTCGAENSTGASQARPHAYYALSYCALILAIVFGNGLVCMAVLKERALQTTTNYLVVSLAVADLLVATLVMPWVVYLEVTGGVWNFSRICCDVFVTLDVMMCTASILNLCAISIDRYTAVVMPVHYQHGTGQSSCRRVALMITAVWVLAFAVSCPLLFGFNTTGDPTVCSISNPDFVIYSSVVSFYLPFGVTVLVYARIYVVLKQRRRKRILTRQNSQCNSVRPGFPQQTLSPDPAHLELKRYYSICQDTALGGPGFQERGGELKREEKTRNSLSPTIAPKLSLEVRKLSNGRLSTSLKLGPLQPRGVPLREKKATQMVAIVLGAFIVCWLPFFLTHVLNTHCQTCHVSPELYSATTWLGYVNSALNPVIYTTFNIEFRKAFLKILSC
Summary of the method: as §1

[4] = target: serotoninergic 5-HT7 receptor (Homo sapiens, UniProt P34969); experiment: Binding assay 5-HT7 (h), [3H]LSD, CHO cells; design: expressed in transfected cells; host or cells: CHO cells; conditions: read-out: 5-HT7
Chain of serotoninergic 5-HT7 receptor (P34969 whole entry): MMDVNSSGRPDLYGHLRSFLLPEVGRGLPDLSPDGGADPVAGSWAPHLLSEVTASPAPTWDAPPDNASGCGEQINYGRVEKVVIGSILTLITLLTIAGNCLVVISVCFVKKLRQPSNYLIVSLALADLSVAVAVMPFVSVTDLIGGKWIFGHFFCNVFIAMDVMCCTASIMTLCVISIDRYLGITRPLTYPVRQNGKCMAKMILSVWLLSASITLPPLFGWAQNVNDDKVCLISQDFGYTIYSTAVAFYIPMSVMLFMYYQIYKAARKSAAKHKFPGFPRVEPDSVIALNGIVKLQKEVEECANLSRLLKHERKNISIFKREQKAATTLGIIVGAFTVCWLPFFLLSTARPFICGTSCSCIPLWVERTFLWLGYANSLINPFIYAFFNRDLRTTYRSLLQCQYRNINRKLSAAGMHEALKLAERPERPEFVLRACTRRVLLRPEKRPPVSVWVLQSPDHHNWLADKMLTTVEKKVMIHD
Summary of the method: as §1

[5] = target: T3, serotonine transporter (SERT) receptor (Homo sapiens, UniProt P31645); experiment: Binding assay SERT (h), [3H]imipramine, CHO cells; conditions: read-out: SERT [%]
T3 construct: expressed in transfected cells; host or cells: CHO cells
T3 sequence (P31645 whole entry): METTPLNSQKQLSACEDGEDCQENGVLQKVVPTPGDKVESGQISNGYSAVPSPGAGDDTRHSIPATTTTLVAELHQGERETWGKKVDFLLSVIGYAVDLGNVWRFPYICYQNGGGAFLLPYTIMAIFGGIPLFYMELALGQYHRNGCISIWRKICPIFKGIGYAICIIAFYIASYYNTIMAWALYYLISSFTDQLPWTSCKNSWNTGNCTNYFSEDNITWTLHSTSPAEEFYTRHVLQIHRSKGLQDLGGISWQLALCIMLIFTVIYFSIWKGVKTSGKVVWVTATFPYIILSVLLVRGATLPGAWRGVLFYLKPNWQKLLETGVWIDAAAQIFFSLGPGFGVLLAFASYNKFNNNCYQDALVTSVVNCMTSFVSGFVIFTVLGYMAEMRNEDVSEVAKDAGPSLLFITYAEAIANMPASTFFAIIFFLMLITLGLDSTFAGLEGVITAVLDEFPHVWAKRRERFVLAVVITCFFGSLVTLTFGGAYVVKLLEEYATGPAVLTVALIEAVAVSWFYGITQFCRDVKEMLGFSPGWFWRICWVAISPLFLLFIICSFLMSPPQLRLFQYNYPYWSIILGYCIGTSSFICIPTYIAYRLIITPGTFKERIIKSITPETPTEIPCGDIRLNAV
Summary of the method: as §1

[6] = target: T4, serotoninergic 5-HT1A receptor (Homo sapiens, UniProt P08908); experiment: Binding assay 5-HT1A (h), [3H]8-OH-DPAT, HEK-293 cells; design: expressed in transfected cells; host or cells: HEK-293 cells; conditions: read-out: 5-HT1A
T4 sequence (P08908 1-422): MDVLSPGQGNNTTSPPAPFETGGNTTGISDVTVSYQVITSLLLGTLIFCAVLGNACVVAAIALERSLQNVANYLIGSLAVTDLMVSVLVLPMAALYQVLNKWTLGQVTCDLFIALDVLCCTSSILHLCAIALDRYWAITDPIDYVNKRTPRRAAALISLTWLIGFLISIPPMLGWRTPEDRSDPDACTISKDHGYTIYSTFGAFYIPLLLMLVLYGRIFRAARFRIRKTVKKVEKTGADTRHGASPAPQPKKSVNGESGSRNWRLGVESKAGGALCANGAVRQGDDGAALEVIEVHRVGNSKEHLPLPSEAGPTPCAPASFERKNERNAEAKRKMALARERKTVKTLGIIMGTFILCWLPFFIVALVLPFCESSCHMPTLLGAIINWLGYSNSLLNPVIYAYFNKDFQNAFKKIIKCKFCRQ
Summary of the method: as §1

adrenergic α2C receptor = target: T5, adrenergic α2C receptor (Homo sapiens, UniProt P18825); experiment: Binding assay α2C (h), [3H]RX 821002, CHO cells; design: expressed in transfected cells; host or cells: CHO cells; conditions: read-out: α2C [%]
T5 sequence (P18825 1-462): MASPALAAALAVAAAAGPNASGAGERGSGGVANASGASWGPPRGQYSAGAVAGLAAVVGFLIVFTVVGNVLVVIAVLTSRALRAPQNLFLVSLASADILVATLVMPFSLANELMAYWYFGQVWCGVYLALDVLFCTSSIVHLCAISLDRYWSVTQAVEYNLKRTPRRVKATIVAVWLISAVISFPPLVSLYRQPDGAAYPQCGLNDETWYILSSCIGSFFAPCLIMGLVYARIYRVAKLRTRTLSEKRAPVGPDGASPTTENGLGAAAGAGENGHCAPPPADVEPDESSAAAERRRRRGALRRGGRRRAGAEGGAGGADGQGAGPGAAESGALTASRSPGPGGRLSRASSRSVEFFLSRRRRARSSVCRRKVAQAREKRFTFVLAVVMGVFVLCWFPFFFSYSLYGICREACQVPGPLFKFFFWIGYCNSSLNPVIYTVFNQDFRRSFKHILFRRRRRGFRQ
Summary of the method: as §1

[7] = target: histaminergic H1 receptor (Homo sapiens, UniProt P35367); experiment: Binding assay H1 (h), [3H]pyrilamine, HEK-293 cells; design: expressed in transfected cells; host or cells: HEK-293 cells; conditions: read-out: H1 [%]
Chain of histaminergic H1 receptor (P35367 whole entry): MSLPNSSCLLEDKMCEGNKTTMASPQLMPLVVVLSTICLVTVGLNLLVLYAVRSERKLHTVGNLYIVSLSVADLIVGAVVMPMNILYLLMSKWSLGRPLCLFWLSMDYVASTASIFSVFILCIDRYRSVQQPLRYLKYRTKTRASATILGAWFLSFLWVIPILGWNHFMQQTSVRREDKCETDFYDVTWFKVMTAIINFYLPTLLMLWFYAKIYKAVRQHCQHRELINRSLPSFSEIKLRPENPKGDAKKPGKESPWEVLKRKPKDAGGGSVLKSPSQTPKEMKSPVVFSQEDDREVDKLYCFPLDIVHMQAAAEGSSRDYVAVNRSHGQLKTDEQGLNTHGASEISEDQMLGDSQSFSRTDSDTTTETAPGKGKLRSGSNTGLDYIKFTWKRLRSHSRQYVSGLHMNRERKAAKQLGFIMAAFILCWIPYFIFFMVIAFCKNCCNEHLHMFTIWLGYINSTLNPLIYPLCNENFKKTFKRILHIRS
Summary of the method: as §1

adrenergic α1 receptor = experiment: Binding assay α1 (non-selective), [3H]prazosin, rat cerebral cortex; conditions: percent inhibition of control specific binding; compounds tested at 1×10^−6 M
Summary of the method: as §1

Chain of serotoninergic 5-HT2A receptor (P28223 whole entry): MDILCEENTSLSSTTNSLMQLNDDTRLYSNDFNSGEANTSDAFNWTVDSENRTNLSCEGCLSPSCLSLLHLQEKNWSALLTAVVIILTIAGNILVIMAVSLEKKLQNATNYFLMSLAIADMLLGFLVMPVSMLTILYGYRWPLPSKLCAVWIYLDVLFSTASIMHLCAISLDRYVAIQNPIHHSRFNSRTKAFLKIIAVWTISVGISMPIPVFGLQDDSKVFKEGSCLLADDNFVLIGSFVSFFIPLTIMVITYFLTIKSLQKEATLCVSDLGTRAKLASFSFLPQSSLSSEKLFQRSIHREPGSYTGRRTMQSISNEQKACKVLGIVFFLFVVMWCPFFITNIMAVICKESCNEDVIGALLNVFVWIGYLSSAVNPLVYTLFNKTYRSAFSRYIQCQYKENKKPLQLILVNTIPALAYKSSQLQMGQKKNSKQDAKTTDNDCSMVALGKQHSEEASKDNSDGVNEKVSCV

SMILES | inhibition at 1 µM [1] [%] | σ [%] (sigma σ receptor) | inhibition at 1 µM [2] [%] | inhibition at 1 µM [3] [%] | inhibition at 1 µM (muscarinic M3 receptor) [%] | inhibition at 1 µM (dopaminergic D2 receptor) [%] | inhibition at 1 µM (dopaminergic D3 receptor) [%] | inhibition at 1 µM [4] [%] | inhibition at 1 µM [5] [%] | inhibition at 1 µM [6] [%] | inhibition at 1 µM (adrenergic α2C receptor) [%] | inhibition at 1 µM [7] [%] | α1 [%] (adrenergic α1 receptor)
Cc1c(S(=O)(=O)NCCCN2CCN(c3nsc4ccccc34)CC2)sc2ccc(F)cc12 [Compound 66, N-[3-[4-(1,2-Benzothiazol-3-yl)piperazin-1-yl]propyl]-5-fluoro-3-methylbenzothiophene-2-sulphonamide] | 101 | 61 | 95 | 86 | 10 | 101 | 101 | 101 | 93 | 98 | 103 | 99 | 93
O=S(=O)(NCCCN1CCN(c2nsc3ccccc23)CC1)c1cccc2scnc12 [Compound 267, N-[3-[4-(1,2-Benzothiazol-3-yl)piperazin-1-yl]propyl]-1,3-benzothiazole-4-sulphonamide] | 101 | 50 | 95 | 78 | 13 | 100 | 99 | 100 | 91 | 98 | 99 | 92 | 97
O=S(=O)(NCCCN1CCN(c2nsc3ccccc23)CC1)c1ccc(F)c(F)c1 [Compound 249, N-[3-[4-(1,2-Benzothiazol-3-yl)piperazin-1-yl]propyl]-3,4-difluorobenzenesulphonamide] | 101 | 68 | 101 | 89 | 9 | 98 | 100 | 100 | 77 | 100 | 98 | 97 | 99
O=c1[nH]c2cccc(N3CCN(CCCCNS(=O)(=O)c4cccc5ccccc45)CC3)c2[nH]1 [Compound 418, N-[4-[4-(2-oxo-1,3-dihydrobenzimidazol-4-yl)piperazin-1-yl]butyl]naphthalene-1-sulphonamide] | 36 | 6 | 5 | 19 | 4 | 97 | 99 | 89 | 5 | 98 | 94 | 55 | 98
O=S(=O)(NCCCCN1CCC(c2noc3cc(F)ccc23)CC1)c1ccc(F)c(F)c1 [Compound 295, 3,4-Difluoro-N-[4-[4-(6-fluoro-1,2-benzoxazol-3-yl)piperidin-1-yl]butyl]benzenesulphonamide] | 99 | 63 | 93 | 51 | 19 | 95 | 98 | 99 | 16 | 68 | 97 | 95 | 96
O=S(=O)(NCCCCN1CCN(c2nsc3ccccc23)CC1)c1ccc2c(c1)OCO2 [Compound 245, N-[4-[4-(1,2-Benzothiazol-3-yl)piperazin-1-yl]butyl]-1,3-benzodioxole-5-sulphonamide] | 99 | 52 | 82 | 72 | 25 | 97 | 97 | 98 | 38 | 99 | 101 | 98 | 96
O=S(=O)(NCCCN1CCN(c2nsc3ccccc23)CC1)c1cccc(Cl)c1 [Compound 70, N-[3-[4-(1,2-Benzothiazol-3-yl)piperazin-1-yl]propyl]-3-chlorobenzenesulphonamide] | 101 | 64 | 99 | 88 | 25 | 99 | 101 | 100 | 82 | 99 | 100 | 97 | 96
O=S(=O)(NCCCCN1CCN(c2nsc3ccccc23)CC1)c1ccc(F)c(Cl)c1 [Compound 63, N-[4-[4-(1,2-Benzothiazol-3-yl)piperazin-1-yl]butyl]-3-chloro-4-fluorobenzenesulphonamide] | 100 | 54 | 89 | 95 | 11 | 99 | 103 | 99 | 53 | 97 | 98 | 99 | 99
COc1cccc(S(=O)(=O)NCCCCN2CCC(c3noc4cc(F)ccc34)CC2)c1 [Compound 300, N-[4-[4-(6-Fluoro-1,2-benzoxazol-3-yl)piperidin-1-yl]butyl]-3-methoxybenzenesulphonamide] | 102 | 83 | 89 | 49 | 18 | 96 | 96 | 99 | 30 | 80 | 94 | 87 | 96
O=c1[nH]c2cccc(N3CCN(CCCNS(=O)(=O)c4cccc(F)c4)CC3)c2[nH]1 [Compound 176, 3-Fluoro-N-[3-[4-(2-oxo-1,3-dihydrobenzimidazol-4-yl)piperazin-1-yl]propyl]benzenesulphonamide] | 7 | −25 | 29 | 9 | 6 | 89 | 95 | 80 | -3 | 97 | 44 | 8 | 77
